{
  "source": "patent US20170136076A1",
  "about": "“THERAPEUTIC COMPOSITIONS COMPRISING HERBAL EXTRACTS AND ESSENTIAL OILS FOR SMOKING AND VAPORIZATION” (NISARGA BIOTECH PRIVATE LIMITED, priority 2015, published 2017)",
  "origin": "cited, not measured here",
  "key": {"[1]": {"settings": "pure THC in the vaporizer"}, "[2]": {"settings": "after 90 minutes; condenses on the surface of the vaporizer or the balloon"}},
  "data": [
    {"smiles": "CCCCCc1cc(O)c2c(c1)OC(C)(C)[C@@H]1CCC(C)=C[C@@H]21", "note": "[THC, tetrahydrocannabinol]", "values": [
      {"measurement": "degradation products (delta-8-THC, cannabinol, unknown compounds) detected by HPLC", "setting": "[1]", "result": "no degradation products"},
      {"measurement": "loss of THC from stored vapor", "setting": "[2]", "result": "exceed 50%"}
    ]}
  ]
}
